Here are results for twelve compounds from paper PMC10535842, “Novel Thiazole-Based SIRT2 Inhibitors Discovered via Molecular Modelling Studies and Enzymatic Assays” (Pharmaceuticals, 2023).

The target of experiment [1] is T1, recombinant SIRT2 (Homo sapiens, UniProt Q8IXJ6).
T1 sequence (Q8IXJ6 1-389): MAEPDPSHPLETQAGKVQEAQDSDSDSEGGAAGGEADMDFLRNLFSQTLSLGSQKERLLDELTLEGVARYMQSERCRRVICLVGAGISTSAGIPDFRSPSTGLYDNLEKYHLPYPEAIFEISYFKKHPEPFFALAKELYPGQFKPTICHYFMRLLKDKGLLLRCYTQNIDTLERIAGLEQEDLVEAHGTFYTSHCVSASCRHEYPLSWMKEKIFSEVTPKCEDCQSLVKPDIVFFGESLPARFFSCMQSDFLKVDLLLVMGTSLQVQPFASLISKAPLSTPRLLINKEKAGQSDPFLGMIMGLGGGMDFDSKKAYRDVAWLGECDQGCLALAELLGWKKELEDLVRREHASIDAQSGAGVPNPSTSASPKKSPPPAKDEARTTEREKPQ
Put plainly: SIRT2 deacetylase activity, recombinant SIRT2 incubated with acetylated peptide H3K9Ac and NAD+. Type of experiment: biochemical. The following applies: recombinant protein. The protocol: The effect of the in silico screened compounds on the SIRT2 deacetylase activity was evaluated thanks to the incubation of recombinant SIRT2 with an acetylated peptide (H3K9Ac, a peptide acetylated on Lys 9) and NAD^+.

The test system of experiment [2] is SIRT2 activity (acetylation status of α-tubulin). The experiment can be described thus: α-tubulin acetylation in cultured CFBE41o- cells (immunoblotting). Type of experiment: cell-based, human. Conditions: 10 μM. The protocol:
Finally, experiments were performed to determine whether compound 1a was active in intact cells. The acetylation status of α-tubulin, a known target of SIRT2 deacetylase activity, was used to monitor SIRT2 activity in human cells.
The cells were incubated with 10 μM of compound 1a or the respective amount of vehicle DMSO, and were used for protein lysate generation; then, the total and acetylated α-tubulin levels were detected by Immunoblotting. The levels of acetylated α-tubulin were quantified, normalized to the total α-tubulin, and expressed as percentage increase vs. vehicle-treated cells. One representative Western blot analysis and the mean ± SD of 3 quantifications are shown. **, p < 0.01.
The bronchial epithelial CFBE41o- cells were cultured as in [20]. […] The proteins were subsequently transferred to nitrocellulose membranes and the expression of the total or acetylated α-tubulin was detected using the following primary antibodies: anti-α-tubulin (rabbit polyclonal, #2125, Cell Signalling Technology, Danvers, MA, USA) and anti-acetylated α-tubulin (rabbit polyclonal, #5335, Cell Signalling Technology). Following incubation with the appropriate secondary antibodies and Amersham ECL detection (Cytiva, Milano, Italy), the band intensity was quantified using the ChemiDoc imaging system (Bio-Rad, Milan, Italy). α-tubulin acetylation was normalized to the total α-tubulin levels.
(Immunoblotting shows a protein as a band on a membrane.)

Experiment [3] deals with T2, recombinant human HSP70 (Homo sapiens, UniProt P0DMV8).
T2 construct: made in house; host or cells: E. coli BL21 (DE3)
Put plainly: HSP70 ATPase catalytic activity, Malachite green assay. Type of experiment: biochemical. The following applies: 300 μM final concentration; read-out: percentage of inhibition of HSP70 ATPase activity. As for the experimental part:
The impact of selected molecules on the ATPase catalytic activity of an in-house produced recombinant human HSP70 protein was determined using the Malachite green assay, incubating the recombinant protein with ATP in the presence or absence of different compounds (300 μM final concentration). The percentage of inhibition exerted by the selected compounds on the ATPase activity was as follow: 1a, 49 ± 2%; 2a, 40 ± 1%; 3a, 44 ± 4%; 4a, 20 ± 1%; 5a, 19 ± 1%; 6a, 37 ± 1%; 7a, 47 ± 1%.
The recombinant human Hsp70 protein was produced in BL21 (DE3) E. coli transformed with the pET-6xHis/hHSP70 plasmid containing the coding sequence for human HSP70 (hHSPA1A gene, NM_005345.6; purchased from Vector Builder, Vector ID VB210930). This vector allowed for producing an N-terminal 6xHis tag fusion HSP70 protein.
BL21 cells containing the vector were initially grown in Luria−Bertani medium at 37 °C (Merck, Milan, Italy) with 200 μg/mL ampicillin until the culture reached an OD600 of 0.5. The 6xHis/hHSP70 fusion protein was expressed by adding isopropyl-β-d-thiogalactopyranoside (final concentration of 0.2 mM) and incubating the bacteria culture at 37 °C for 2 h. The cells were harvested by centrifugation and then lysed by sonication in 20 mM Tris-HCl, 250 mM KCl, and 10 mM MgCl2 pH 7.4; after the addition of Triton X-100 to a final concentration of 1% and incubation for 30 min at 4 °C, the lysates were centrifugated at 10,000× g for 15 min. The HSP70 protein was purified by affinity chromatography using His GraviTrap TALON columns (Euroclone, Milan, Italy). Briefly, after loading the lysate, the resin was washed twice with 20 mM Tris-HCl, 250 mM KCl, and 10 mM MgCl2 pH 7.4 and twice with the same buffer containing 10 mM of imidazole. The elution of the recombinant protein was obtained with 150 mM imidazole, pH 7.4. Imidazole was removed from the recombinant protein through overnight dialysis using a dialysis tubing membrane (Merck KGaA, Frankfurter Strasse 250 Darmstadt, Germany) and the protein was concentrated using a Centricon (Merck Millipore, 11 Avenida Norte Bis No. 513, San Salvador, El Salvador). The protein concentrations were determined using the Bradford assay (Bio-Rad Laboratories, Inc. Italy, Segrate) and the protein purity was monitored using SDS-PAGE.
The ATPase catalytic activity of recombinant human HSP70 was measured with a colorimetric assay using the malachite green reagent. Briefly, 6 µM of HSP70 protein was incubated for 30 min at 37 °C with 5 mM ATP in 20 mM Tris-HCl, 250 mM KCl, 10 mM MgCl2, and 0.02%TritonX-100, pH 7.4. The released phosphates were quantified by adding the malachite green reagent to an aliquot of this incubation and the absorbance was recorded at 620 nm using a Clariostar plate reader. The effects of thiazoles-based molecules on the ATPase catalytic activity were measured by adding (or not) the different molecules to the incubation (at 300 µM final concentration). To correct for non-enzymatic hydrolysis of ATP and for a specific absorbance of molecules, the absorbance signal of identically treated samples lacking the HSP70 protein was subtracted.

For experiment [4], the target named is SIRT6 (Homo sapiens, UniProt Q8N6T7). The experiment can be described thus: SIRT6 deacetylase and depalmitoylase activity (H3K9Ac / H3K9Palm peptides). Type of experiment: biochemical. As for the experimental part: The synthesis of peptides H3K9Ac and H3K9Palm and the evaluation of the SIRT2 deacetylase activity and of the SIRT6 deacetylase and depalmitoylase activity were carried out as previously described. The IC50 of compound 1a was determined as in [43].

In experiment [5] the test system is SIRT2. The following applies: HPLC assay, H3K9Ac; read-out: SIRT2 IC50 (series C, compounds 112-116); cited from earlier work.

“Also recorded” adds a separate entry of the source.

Chain of SIRT6 (Q8N6T7 whole entry): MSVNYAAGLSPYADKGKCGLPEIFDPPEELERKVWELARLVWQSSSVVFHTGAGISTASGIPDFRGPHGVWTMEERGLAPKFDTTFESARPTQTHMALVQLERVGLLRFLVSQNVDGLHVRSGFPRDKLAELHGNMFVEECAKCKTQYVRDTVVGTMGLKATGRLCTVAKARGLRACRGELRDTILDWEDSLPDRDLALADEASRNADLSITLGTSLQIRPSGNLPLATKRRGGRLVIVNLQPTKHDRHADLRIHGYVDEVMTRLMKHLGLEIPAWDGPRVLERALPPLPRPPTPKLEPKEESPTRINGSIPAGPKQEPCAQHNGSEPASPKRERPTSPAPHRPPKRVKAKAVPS
T2 sequence (P0DMV8 whole entry): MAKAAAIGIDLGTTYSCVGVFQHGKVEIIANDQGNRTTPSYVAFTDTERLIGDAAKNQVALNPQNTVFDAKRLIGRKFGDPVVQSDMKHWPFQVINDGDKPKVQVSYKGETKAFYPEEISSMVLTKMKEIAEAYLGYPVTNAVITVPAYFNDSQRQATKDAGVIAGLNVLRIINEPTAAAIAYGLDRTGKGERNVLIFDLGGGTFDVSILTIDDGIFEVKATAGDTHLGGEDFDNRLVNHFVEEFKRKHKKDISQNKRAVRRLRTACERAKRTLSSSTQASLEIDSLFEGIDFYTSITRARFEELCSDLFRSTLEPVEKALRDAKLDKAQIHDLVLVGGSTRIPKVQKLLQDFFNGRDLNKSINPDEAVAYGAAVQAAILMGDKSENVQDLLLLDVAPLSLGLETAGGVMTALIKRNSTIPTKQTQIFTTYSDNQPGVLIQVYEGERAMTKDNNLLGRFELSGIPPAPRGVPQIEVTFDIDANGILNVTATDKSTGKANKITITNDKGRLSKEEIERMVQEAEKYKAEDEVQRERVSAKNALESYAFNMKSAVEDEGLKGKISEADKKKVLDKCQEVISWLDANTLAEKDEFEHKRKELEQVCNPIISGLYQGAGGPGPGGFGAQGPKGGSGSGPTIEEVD

One may read the inhibition as how much of the control response was suppressed. By IC50 is commonly meant the point on the concentration scale where inhibition reaches its midpoint. As to `CSc1cccc(Nc2nc(-c3nc4ccccc4s3)cs2)c1` [Compound 1a], in experiment [1], the inhibition at 150 µM stood at 72 ± 8% and the IC50 is 45.1 ± 5 µM. The “α-tubulin acetylation (acetylated normalized to total α-tubulin, vs vehicle)” value in experiment [2] is given as “higher levels of the acetylated SIRT2 substrate; also recorded: increased α-tubulin acetylation”. Further, the inhibition at 300 µM in experiment [3] amounted to 49 ± 2%. In experiment [4], the “effect on SIRT6 deacetylase activity” value was “did not significantly affect” and the “selectivity over SIRT6” value was “selective over SIRT6”. Also, the “effect on SIRT6 depalmitoylase activity” value in experiment [4] (palmitoylated peptide H3K9Palm) was “did not significantly affect”.

Take `CCc1ccc(Nc2nc(-c3ccc(Cl)cc3)cs2)cc1SC` [Compound 2a]: in experiment [1], the “% Inhibition SIRT2 (at 150 μM)” value worked out at 100 ± 9%, the inhibition at 150 µM was above 90% and the IC50 was 17.3 ± 2 µM. Further, the inhibition at 300 µM in experiment [3] was determined as 40 ± 1%.

Regarding `CSc1cccc(Nc2nc(-c3cccc(Cl)c3)cs2)c1` [Compound 3a], the inhibition at 150 µM in experiment [1] turned out to be 60 ± 8%. Moreover, the inhibition at 300 µM in experiment [3] is 44 ± 4%.

With `CSc1cccc(Nc2nc(-c3ccc4c(c3)CC(=O)N4)cs2)c1` [Compound 4a], the inhibition at 150 µM in experiment [1] stood at 60 ± 5%. Also, the inhibition at 300 µM in experiment [3] worked out at 20 ± 1%.

Turning to `CSc1cccc(Nc2nc(-c3ccc4[nH]c(=O)sc4c3)cs2)c1` [Compound 5a], the inhibition at 150 µM in experiment [1] worked out at 76 ± 9%. Further, the inhibition at 300 µM in experiment [3] came to 19 ± 1%.

Turning to `O=C1Cc2cc(-c3csc(Nc4cccc(SC(F)(F)F)c4)n3)ccc2N1` [Compound 6a], in experiment [1], the “% Inhibition SIRT2 (at 150 μM)” value was 92 ± 7%, the inhibition at 150 µM is above 90% and the IC50 came out at 27.3 ± 4.7 µM. For the same compound, the inhibition at 300 µM in experiment [3] was 37 ± 1%.

For the compound `CCn1c(=O)/c(=C2\Sc3ccccc3N2C)s/c1=C\c1ccccn1` [Compound 7a, YM-08], in experiment [1], the “% Inhibition SIRT2 (at 150 μM)” value is 93 ± 9%, the inhibition at 150 µM was above 90% and the IC50 was found to be 19.9 ± 2.1 µM. For the same compound, in experiment [3], the inhibition at 300 µM was 47 ± 1%.

As to `Cc1cc(C)nc(SCC(=O)Nc2ncc(Cc3cccc4ccccc34)s2)n1` [Compound 10, SirReal2], in experiment [1], the inhibition at 150 µM amounted to 100 ± 5%.

With `O=C(On1nnc2ccccc21)c1cc[nH]c1` [Compound 112], the half-maximal inhibitory concentration (IC50) in experiment [5] is 56.6 µM.

For the compound `O=C(On1nnc2ccccc21)c1ccc[nH]1` [Compound 113], in experiment [5], the IC50 was 42.7 µM.

With `Cc1ccc2[nH]cc(C(=O)On3nnc4ccccc43)c2c1` [Compound 115], in experiment [5], the IC50 was 74 µM.

With `O=C(On1nnc2ncccc21)c1c[nH]c2ccc(Br)cc12` [Compound 116], in experiment [5], the IC50 is 77.1 µM.
